The source of these data is US20230348424A1, “HETEROCYCLIC COMPOUNDS AND METHODS OF USE” (Schrödinger, Inc., priority 2022, published 2023).

The target of assay [1] is SOS1:KRAS (G12C) interaction (Homo sapiens (Human), UniProt Q07889). Briefly: SOS1 KRas(G12C) FRET Assay. The format is binding. Particulars: 0.5 nM His10-SOS1 (res. 564-1049), 2.5 nM GST-KRAS G12C (res. 1-169), 2 hrs at RT. The method in brief:
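GST-KRAS G12C (res. 1-169) at 2.5 nM and His10-SOS1 (res. 564-1049) at 0.5 nM, final, in PBS with 0.1% BSA, 5 mM MgCl2, 100 mM KF, 5 mM DTT and 0.5% DMSO. After 2 h at RT, FRET read at 665/615 nm and normalized to DMSO and no-SOS1 controls. IC50 by non-linear regression.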

For a further assay, the target named is human SOS1 (Homo sapiens (Human), UniProt Q07889). Briefly: Surface Plasmon Resonance (SPR) SOS1 Binding Assay. Particulars: biotinylated SOS1 (res. 564-1049), Biacore 8K, 25° C., kinetic or steady state fit, 1:1 binding; read-out: hSOS1 KD. Here is the method: Binding to SOS1 was measured using a SPR assay with purified recombinant human SOS1 substrate (res. 564-1049 with N-terminal Avi tag; purified and biotinylated based on Hillig, et al., Proc Natl Acad Sci USA (2019); 116(7):2551-2560). SPR measurements were performed on a Biacore 8K SPR instrument (GE Healthcare, Sweden). Assays were performed at 25° C. using Series S SA sensor chips pre-coated with streptavidin (GE Healthcare, Cat. BR100531). Biotinylated SOS1 diluted in sample buffer (20 mM Tris HCI, 150 mM NaCl, 1 mM DTT, 0.05% TWEEN 20, 1 mM MgCh, pH 8.0) was captured to one flow cell of the chip to about 3,000 resonance units (RU) using sample buffer supplemented with 5% DMSO as a running buffer. Serial dilutions of the assayed compounds in the running buffer at 100, 50 or 0.5 µM were injected for 60 s at a flow rate of 30 µL/min and association phases were recorded. Dissociation of the samples was monitored for 600 s. Data processing was performed using Biacore Insight Software (Biacore, GE Healthcare). Sensorgrams recorded on a SA flow cell without captured protein were subtracted from sensorgrams recorded on the SOS1 surface. Blank injections of running buffer were used for double referencing and solvent correction was applied to all sample sensorgrams to correct for buffer mismatches. KDS were estimated using a kinetic or steady state, where applicable, fitting model describing a reversible equilibrium with 1:1 binding between SOS1 and the compound.
Chain of human SOS1 (Q07889 564-1049): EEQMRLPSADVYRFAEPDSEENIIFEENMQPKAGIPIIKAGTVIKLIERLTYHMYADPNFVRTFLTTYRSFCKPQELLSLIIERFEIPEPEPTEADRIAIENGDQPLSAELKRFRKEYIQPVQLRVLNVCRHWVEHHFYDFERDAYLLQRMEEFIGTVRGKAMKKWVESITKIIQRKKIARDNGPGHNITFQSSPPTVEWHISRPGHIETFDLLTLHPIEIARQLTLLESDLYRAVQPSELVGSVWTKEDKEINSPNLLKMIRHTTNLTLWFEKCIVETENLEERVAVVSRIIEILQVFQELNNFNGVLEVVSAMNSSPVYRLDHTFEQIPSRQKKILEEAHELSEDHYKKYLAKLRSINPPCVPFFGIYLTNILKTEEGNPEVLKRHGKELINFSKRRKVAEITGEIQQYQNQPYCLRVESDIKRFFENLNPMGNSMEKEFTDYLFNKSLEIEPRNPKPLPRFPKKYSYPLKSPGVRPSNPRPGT
(Surface plasmon resonance follows binding to a sensor surface in real time, without labels.)

Chain of SOS1:KRAS (G12C) interaction (Q07889 564-1049, stated change not applied): as the sequence (Q07889 564-1049) above

What is called IC50 is the concentration that inhibits the measured activity by half. The low end stands for higher potency, the high end for lower potency. A word on the Kd: it is the constant that tells how readily two partners part at equilibrium. For `CO[C@@H]1CN(C)CC[C@H]1Nc1cc(=O)n(C2CCOCC2)cc1C(=O)N[C@H](C)c1cccc(C(F)(F)F)c1C` (single isomer, unassigned) [Example 24], in assay [1], the half-inhibitory concentration (IC50) is 40 nM. Further, the Kd at human SOS1 was 27 nM.

For `CO[C@H]1CN(C)CC[C@@H]1Nc1cc(=O)n(C2CCOCC2)cc1C(=O)N[C@H](C)c1cccc(C(F)(F)F)c1C` (single isomer, unassigned) [Example 25], inhibition in assay [1] was half-maximal at 71.3 nM (IC50). At human SOS1, the Kd is 45 nM.

Consider `C[C@@H](NC(=O)c1cn([C@@]2(C)CCOC2)c(=O)cc1NC1CCN(C)CC1)c1cccc(C(F)F)c1F` (single isomer, unassigned) [Example 47], for which the IC50 in assay [1] was determined as 4.5 nM. For the same molecule, the Kd on human SOS1 worked out at 2 nM.

In assay [1], `C[C@@H](NC(=O)c1cn([C@]2(C)CCOC2)c(=O)cc1NC1CCN(C)CC1)c1cccc(C(F)F)c1F` (single isomer, unassigned) [Example 48] showed an IC50 of 25.6 nM. Besides, the equilibrium dissociation constant (Kd) at human SOS1 stood at 7 nM.

In turn, `C[C@@H](NC(=O)c1cn(C2(C(F)F)CC2)c(=O)cc1N[C@@H]1CCN(C)C[C@@H]1F)c1cccc(C(F)F)c1F` (single isomer, unassigned) [Example 63] displayed an IC50 in assay [1] of 11.3 nM. Further, on human SOS1, the dissociation constant Kd was determined as 7 nM.

For the molecule `C[C@@H](NC(=O)c1cn(C2(C(F)F)CC2)c(=O)cc1N[C@H]1CCN(C)C[C@H]1F)c1cccc(C(F)F)c1F` (single isomer, unassigned) [Example 64], inhibition in assay [1] was half-maximal at 15 nM (IC50). Also, on human SOS1, the dissociation constant Kd stood at 9 nM.

For `C[C@@H](NC(=O)c1cn(C2(C(F)F)CC2)c(=O)cc1N[C@@H]1CCN(C)C[C@H]1F)c1cccc(C(F)F)c1F` (single isomer, unassigned) [Example 65], the midpoint of inhibition in assay [1], the IC50, lay at 50.4 nM. Further, the Kd at human SOS1 came out at 48 nM.

For `C[C@@H](NC(=O)c1cn(C2(C(F)F)CC2)c(=O)cc1N[C@H]1CCN(C)C[C@@H]1F)c1cccc(C(F)F)c1F` (single isomer, unassigned) [Example 66], in assay [1], the half-inhibitory concentration (IC50) was 48.6 nM. The Kd at human SOS1 turned out to be 34 nM.

In assay [1], `C[C@@H](NC(=O)c1cn(C2(C(F)F)CC2)c(=O)cc1N[C@@H]1CCNC[C@@H]1F)c1cccc(C(F)F)c1F` (single isomer, unassigned) [Example 69] returned a 50% inhibitory concentration (IC50) of 17.4 nM. The Kd at human SOS1 is 13 nM.

The molecule `C[C@@H](NC(=O)c1cn(C2(C(F)F)CC2)c(=O)cc1N[C@H]1CCNC[C@H]1F)c1cccc(C(F)F)c1F` (single isomer, unassigned) [Example 70] gave a concentration for half-maximal inhibition (IC50) in assay [1] of 12.7 nM. Moreover, the dissociation constant (Kd) on human SOS1 is 4 nM.

`C[C@@H](NC(=O)c1cn([C@H]2C[C@@H]2C2CC2)c(=O)cc1N[C@H]1[C@@H]2CN(C)C[C@@H]21)c1cccc(C(F)F)c1F` (single isomer, unassigned) [Example 72] displayed an IC50 in assay [1] of 9.7 nM. Also, the Kd on human SOS1 is 3 nM.

`C[C@@H](NC(=O)c1cn([C@@H]2C[C@H]2C2CC2)c(=O)cc1NC1CCN(C)CC1)c1cccc(C(F)F)c1F` (single isomer, unassigned) [Example 74]: the half-inhibitory concentration (IC50) in assay [1] turned out to be 4.6 nM. On human SOS1, the equilibrium dissociation constant (Kd) was found to be 2 nM.

In assay [1], `C[C@@H](NC(=O)c1cn([C@@H]2CC2(F)F)c(=O)cc1N[C@H]1[C@@H]2CN(C)C[C@@H]21)c1cccc(C(F)F)c1F` (single isomer, unassigned) [Example 92] showed an IC50 of 16.1 nM. Besides, the Kd on human SOS1 was determined as 9 nM.

Consider `C[C@@H](NC(=O)c1cn([C@@H]2CC2(C)C)c(=O)cc1N[C@H]1[C@@H]2CN(C)C[C@@H]21)c1cccc(C(F)F)c1F` (single isomer, unassigned) [Example 94], for which the concentration for half-maximal inhibition (IC50) in assay [1] was 13.4 nM. Also, the dissociation constant Kd on human SOS1 is 7 nM.

`C[C@@H](NC(=O)c1cn([C@@H]2CCC2(F)F)c(=O)cc1N[C@H]1[C@@H]2CN(C)C[C@@H]21)c1cccc(C(F)F)c1F` (single isomer, unassigned) [Example 103] came in with an IC50 in assay [1] of 5.7 nM. The Kd at human SOS1 is 3 nM.

The molecule `C[C@@H](NC(=O)c1cn([C@H]2CCC2(F)F)c(=O)cc1N[C@H]1[C@@H]2CN(C)C[C@@H]21)c1cccc(C(F)F)c1F` (single isomer, unassigned) [Example 104] displayed an IC50 in assay [1] of 45.4 nM. Further, on human SOS1, the Kd stood at 24 nM.

Regarding `C[C@@H]1[C@@H](n2cc(C(=O)N[C@H](C)c3cccc(C(F)F)c3F)c(N[C@H]3[C@@H]4CN(C)C[C@@H]43)cc2=O)C1(F)F` (single isomer, unassigned) [Example 109], the IC50 in assay [1] amounted to 3.6 nM. The Kd at human SOS1 stood at 2 nM.

Turning to `C[C@@H](NC(=O)c1cn([C@H]2[C@H](C)C2(F)F)c(=O)cc1N[C@H]1[C@@H]2CN(C)C[C@@H]21)c1cccc(C(F)F)c1F` (single isomer, unassigned) [Example 110], in assay [1], the 50% inhibitory concentration (IC50) stood at 23.8 nM. Moreover, the Kd on human SOS1 amounted to 12 nM.

Regarding `C[C@@H](NC(=O)c1cn([C@H]2C[C@@H]2C(F)(F)F)c(=O)cc1N[C@H]1[C@@H]2CN(C)C[C@@H]21)c1cccc(C(F)F)c1F` (single isomer, unassigned) [Example 111], the half-maximal inhibitory concentration (IC50) in assay [1] was 26.2 nM. For the same molecule, the equilibrium dissociation constant (Kd) on human SOS1 is 17 nM.

Molecule `C[C@@H](NC(=O)c1cn([C@@H]2C[C@H]2C(F)(F)F)c(=O)cc1N[C@H]1[C@@H]2CN(C)C[C@@H]21)c1cccc(C(F)F)c1F` (single isomer, unassigned) [Example 112] gave a half-maximal inhibitory concentration (IC50) in assay [1] of 13.6 nM. In addition, the dissociation constant (Kd) on human SOS1 was 6 nM.

In assay [1], `C[C@@H](NC(=O)c1cn([C@H]2CC23CC3)c(=O)cc1N[C@H]1[C@@H]2CN(C)C[C@@H]21)c1cccc(C(F)F)c1F` (single isomer, unassigned) [Example 115] showed a half-inhibitory concentration (IC50) of 14.1 nM. Moreover, the Kd at human SOS1 was determined as 6 nM.

Regarding `C[C@@H](NC(=O)c1cn([C@@H]2CC23CC3)c(=O)cc1N[C@H]1[C@@H]2CN(C)C[C@@H]21)c1cccc(C(F)F)c1F` (single isomer, unassigned) [Example 116], in assay [1], the midpoint of inhibition, the IC50, lay at 26.7 nM. Moreover, at human SOS1, the equilibrium dissociation constant (Kd) turned out to be 11 nM.

Regarding `C[C@@H](NC(=O)c1cn([C@H]2CC23CCC3)c(=O)cc1N[C@H]1[C@@H]2CN(C)C[C@@H]21)c1cccc(C(F)F)c1F` (single isomer, unassigned) [Example 117], in assay [1], the IC50 amounted to 8.5 nM. For the same molecule, the Kd at human SOS1 was found to be 6 nM.

In assay [1], `C[C@@H](NC(=O)c1cn([C@@H]2CC23CCC3)c(=O)cc1N[C@H]1[C@@H]2CN(C)C[C@@H]21)c1cccc(C(F)F)c1F` (single isomer, unassigned) [Example 118] registered an IC50 of 16.6 nM. In addition, on human SOS1, the Kd was determined as 11 nM.

In assay [1], `C[C@@H](NC(=O)c1cn(C2(C(F)F)CC2)c(=O)cc1N[C@@H]1C[C@@H]2CN(C)C[C@@H]2C1)c1cccc(C(F)F)c1F` (single isomer, unassigned) [Example 124] gave an IC50 of 31.4 nM. Besides, the equilibrium dissociation constant (Kd) on human SOS1 stood at 13 nM.

In assay [1], `C[C@@H](NC(=O)c1cn(C23CC(C2)C3)c(=O)cc1N[C@@H]1[C@@H]2CC[C@H]1CN(C)C2)c1cccc(C(F)F)c1F` (single isomer, unassigned) [Example 134] yielded a concentration for half-maximal inhibition (IC50) of 9 nM. In addition, the Kd at human SOS1 stood at 5 nM.

With `C[C@@H](NC(=O)c1cn(C23CC(C2)C3)c(=O)cc1N[C@H]1[C@@H]2CC[C@H]1CN(C)C2)c1cccc(C(F)F)c1F` (single isomer, unassigned) [Example 135], the IC50 in assay [1] was determined as 52.1 nM. The dissociation constant Kd at human SOS1 was determined as 31 nM.

In assay [1], `C[C@@H](NC(=O)c1cn(C2(C(F)(F)F)CC2)c(=O)cc1N[C@@H]1[C@@H]2CC[C@H]1CN(C)C2)c1cccc(C(F)F)c1F` (single isomer, unassigned) [Example 138] gave an IC50 of 19.7 nM. Moreover, at human SOS1, the Kd was 12 nM.

In turn, `C[C@@H](NC(=O)c1cn(C2(C(F)(F)F)CC2)c(=O)cc1N[C@H]1[C@@H]2CC[C@H]1CN(C)C2)c1cccc(C(F)F)c1F` (single isomer, unassigned) [Example 139] returned a half-inhibitory concentration (IC50) in assay [1] of 49.7 nM. The Kd on human SOS1 amounted to 25 nM.

As for `C[C@@H](NC(=O)c1cn(C2CC2)c(=O)cc1N[C@@H]1[C@@H]2CC[C@H]1CN(C)C2)c1cccc(C(F)F)c1F` (single isomer, unassigned) [Example 140], in assay [1], the IC50 is 15.2 nM. Also, the Kd at human SOS1 stood at 7 nM.

Take `C[C@@H](NC(=O)c1cn(C2CC2)c(=O)cc1N[C@H]1[C@@H]2CC[C@H]1CN(C)C2)c1cccc(C(F)F)c1F` (single isomer, unassigned) [Example 141]: in assay [1], the 50% inhibitory concentration (IC50) was 62.8 nM. For the same molecule, the Kd at human SOS1 was 33 nM.

In assay [1], `C[C@@H](NC(=O)c1cn([C@H]2CCC2(F)F)c(=O)cc1N[C@H]1[C@@H]2CN(C)C[C@@H]21)c1cccc(C(F)(F)F)c1F` (single isomer, unassigned) [Example 144] returned a half-maximal inhibitory concentration (IC50) of 4 nM. Further, at human SOS1, the Kd came to 3 nM.
